For the test, the target named is T1, recombinant human Meningioma Expressed Antigen 5 (MGEA5), also referred to as O-GlcNAcase (OGA) (Homo sapiens, UniProt O60502).
T1 construct: Full length OGA enzyme was purchased at OriGene (cat #TP322411); purchased OriGene TP322411
T1 sequence (O60502 1-916): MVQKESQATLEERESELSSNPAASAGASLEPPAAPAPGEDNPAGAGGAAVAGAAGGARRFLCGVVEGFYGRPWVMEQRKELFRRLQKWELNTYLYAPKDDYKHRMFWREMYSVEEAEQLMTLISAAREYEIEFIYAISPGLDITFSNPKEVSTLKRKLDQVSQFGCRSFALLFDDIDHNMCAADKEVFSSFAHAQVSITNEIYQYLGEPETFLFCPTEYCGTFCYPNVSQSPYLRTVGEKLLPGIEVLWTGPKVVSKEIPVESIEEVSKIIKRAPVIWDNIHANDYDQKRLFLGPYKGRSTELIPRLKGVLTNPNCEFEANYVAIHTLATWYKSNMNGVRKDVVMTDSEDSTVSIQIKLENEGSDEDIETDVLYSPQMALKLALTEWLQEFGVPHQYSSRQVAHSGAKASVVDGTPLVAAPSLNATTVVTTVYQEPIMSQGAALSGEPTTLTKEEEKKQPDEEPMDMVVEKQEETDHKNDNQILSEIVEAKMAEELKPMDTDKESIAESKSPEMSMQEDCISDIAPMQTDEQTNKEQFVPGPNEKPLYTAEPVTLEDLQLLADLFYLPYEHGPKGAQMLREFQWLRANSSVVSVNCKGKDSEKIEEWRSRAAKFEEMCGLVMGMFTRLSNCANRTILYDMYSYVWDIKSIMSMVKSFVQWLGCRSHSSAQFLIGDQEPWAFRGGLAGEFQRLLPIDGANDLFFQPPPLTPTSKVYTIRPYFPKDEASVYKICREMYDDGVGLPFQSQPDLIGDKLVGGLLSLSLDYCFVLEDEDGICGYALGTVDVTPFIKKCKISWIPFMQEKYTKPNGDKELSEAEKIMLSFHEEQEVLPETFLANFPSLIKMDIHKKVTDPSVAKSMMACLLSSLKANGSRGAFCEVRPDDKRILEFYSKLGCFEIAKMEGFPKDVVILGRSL
The experiment in a line: OGA biochemical assay (inhibition of FM-GlcNAc hydrolysis, fluorescence). To be noted: FM-GlcNAc substrate; for IC50: 6 h at room temperature, read-out: Enzymatic hOGA, pIC50 (converted); for Emax: read-out: Enzymatic Emax (%). The text has this: The assay is based on the inhibition of the hydrolysis of fluorescein mono-β-D-N-Acetyl-Glucosamine (FM-GlcNAc) (Mariappa et al. 2015, Biochem J 470:255) by the recombinant human Meningioma Expressed Antigen 5 (MGEA5), also referred to as O-GlcNAcase (OGA). The hydrolysis FM-GlcNAc (Marker Gene technologies, cat #M1485) results in the formation of β-D-N-glucosamineacetate and fluorescein. The fluorescence of the latter can be measured at excitation wavelength 485 nm and emission wavelength 538 nm. An increase in enzyme activity results in an increase in fluorescence signal. Full length OGA enzyme was purchased at OriGene (cat #TP322411). The enzyme was stored in 25 mM Tris.HCl, pH 7.3, 100 mM glycine, 10% glycerol at −20° C. Thiamet G and GlcNAcStatin were tested as reference compounds (Yuzwa et al. 2008 Nature Chemical Biology 4:483; Yuzwa et al. 2012 Nature Chemical Biology 8:393). The assay was performed in 200 mM Citrate/phosphate buffer supplemented with 0.005% Tween-20. 35.6 g Na2HPO4 2H2O (Sigma, #C0759) were dissolved in 1 L water to obtain a 200 mM solution. 19.2 g citric acid (Merck, #1.06580) was dissolved in 1 L water to obtain a 100 mM solution. pH of the sodiumphosphate solution was adjusted with the citric acid solution to 7.2. The buffer to stop the reaction consists of a 500 mM Carbonate buffer, pH 11.0. 734 mg FM-GlcNAc were dissolved in 5.48 mL DMSO to obtain a 250 mM solution and was stored at −20° C. OGA was used at a 2 nM concentration and FM-GlcNAc at a 100 uM final concentration. Dilutions were prepared in assay buffer.
50 nl of a compound dissolved in DMSO was dispensed on Black Proxiplate™ 384 Plus Assay plates (Perkin Elmer, #6008269) and 3 μl fl-OGA enzyme mix added subsequently. Plates were pre-incubated for 60 min at room temperature and then 2 μl FM-GlcNAc substrate mix added. […] Plates were briefly centrifuged for 1 min at 1000 rpm and incubate at room temperature for 6 h. To stop the reaction 5 μl STOP buffer were added and plates centrifuge again 1 min at 1000 rpm. Fluorescence was quantified in the Thermo Scientific Fluoroskan Ascent or the PerkinElmer EnVision with excitation wavelength 485 nm and emission wavelength 538 nm.
For analysis a best-fit curve is fitted by a minimum sum of squares method. From this an IC50 value and Hill coefficient was obtained. High control (no inhibitor) and low control (saturating concentrations of standard inhibitor) were used to define the minimum and maximum values.

Some results are limits rather than exact numbers.

What is called Emax is the greatest response seen or fitted, relative to the assay's reference. In the case of `Cc1cc(OC[C@H]2CCCN(C(C)c3cc4nc(C)oc4cc3F)C2)cc(C)n1` (mixture of isomers) [Compound 34], the IC50 is 10 nM. Also, the Emax (maximal effect) was 101%. Regarding `Cc1cc(C[C@H]2CCCN(C(C)c3ccc4sc(C)nc4n3)C2)cc(C)n1` (single isomer, unassigned) [Compound 42a], the IC50 is 501 nM. For the setting “maximal effect”, the Emax is 98%. In the same order, the values of `Cc1cc(C[C@H]2CCN(C(C)c3ccc4nc(C)sc4c3)C2)cc(C)n1` (some centres unmarked) [Compound 56] are more than 10000 nM and 41%.

For the compound `COc1cc(C[C@@H]2CCN(C(C)c3ccc4oc(C)nc4n3)C2)cc(C)n1` (mixture of isomers) [Compound 28], the IC50 is 100 nM. Where the note is “maximal effect”, the Emax worked out at 99%.

For `Cc1cc(C2CCCN(C(C)c3cc4nc(C)oc4cc3F)C2)cc(C)n1` (racemic) [Compound 32], the IC50 was 7.94 nM. For the same compound, where the note is “maximal effect”, the maximal effect (Emax) amounted to 99%. As for `COc1cc(O[C@@H]2CCN(C(C)c3ccc4oc(C)nc4n3)C2)cc(C)n1` (mixture of isomers) [Compound 21ab], the IC50 is 251 nM. For the same compound, the Emax (maximal effect) was 97%.

As to `Cc1cc(C2CCCN(C(C)c3cnc4[nH]c(C)nc4c3)C2)cc(C(F)(F)F)n1` (centres unmarked) [Compound 3], the IC50 was 316 nM. Moreover, the maximum response (Emax) (maximal effect) stood at 96%. For the compound `Cc1cc(C[C@H]2CCN(C(C)c3ccc4oc(C)nc4n3)C2)cc(C(F)(F)F)n1` (mixture of isomers) [Compound 29], the IC50 is 126 nM. Besides, the maximal effect (Emax) (maximal effect) was 103%. In the same order, the values of `Cc1cc(C[C@H]2CCCN([C@@H](C)c3ccc4oc(C)nc4n3)C2)cc(C(F)(F)F)n1` [Compound 24b] are 5010 nM and 69%. In the same order, the values of `COc1cc(O[C@@H]2CCN([C@@H](C)c3ccc4oc(C)nc4n3)C2)cc(C)n1` [Compound 21a] are more than 10000 nM and 22%. In the same order, the values of `Cc1cc(OC[C@H]2CCCN([C@@H](C)c3ccc4sc(C)nc4n3)C2)cc(C)n1` [Compound 46a] are 631 nM and 96%. As to `Cc1cc(C[C@H]2CCCN([C@H](C)c3ccc4cn(C)nc4n3)C2)cc(C)n1` (relative stereo) [Compound 12b], the IC50 was 15.8 nM. Where the note is “maximal effect”, the Emax was 100%. The like results for `Cc1cc(OC[C@@H]2CCCN(C(C)c3ccc4sc(C)nc4n3)C2)cc(C)n1` (mixture of isomers) [Compound 45ab] were, in that order, 316 nM and 98%. In the same order, the values of `COc1cc([C@H]2CCCN([C@@H](C)c3cnc4[nH]c(C)nc4c3)C2)cc(C(F)(F)F)n1` [Compound 4b] are 501 nM and 96%. The like results for `Cc1cc(C[C@H]2CCN(Cc3ccc4nc(C)sc4c3)C2)cc(C)n1` [Compound 55] were, in that order, more than 10000 nM and 18%. With `Cc1cc(OC2CCCN(C(C)c3ccc4[nH]c(C)nc4n3)C2)cc(C(F)(F)F)n1` (centres unmarked) [Compound 5], the IC50 is 794 nM. Besides, the Emax (maximal effect) turned out to be 94%. In the same order, the values of `Cc1cc(C[C@@H]2CCN([C@@H](C)c3cc4nc(C)oc4cc3F)C2)cc(C)n1` (relative stereo) [Compound 33b] are 63.1 nM and 101%. In the case of `Cc1cc(C[C@H]2CCCN(C(C)c3cnc4[nH]c(C)nc4c3)C2)cc(C)n1` (single isomer, unassigned) [Compound 6b], the IC50 is 7.94 nM. For the same compound, the “Enzymatic Emax (%)” value (maximal effect) turned out to be 100%. As for `Cc1cc(C[C@@H]2CCN(C(C)c3ccc4oc(C)nc4n3)C2)cc(C)n1` (mixture of isomers) [Compound 26], the IC50 is 39.8 nM. For the setting “maximal effect”, the Emax was determined as 101%. Regarding `Cc1cc(C[C@@H]2CCN([C@H](C)c3cc4nc(C)oc4cc3F)C2)cc(C)n1` (relative stereo) [Compound 33a], the IC50 was 2.51 nM. In addition, the maximal response (Emax) (maximal effect) was found to be 100%. The like results for `Cc1cc(OC[C@@H]2CCCN([C@H](C)c3ccc4sc(C)nc4n3)C2)cc(C)n1` [Compound 45a] were, in that order, 501 nM and 95%. The like results for `COc1cc(C2CCCN(C(C)c3cnc4[nH]c(C)nc4c3)C2)cc(C)n1` (centres unmarked) [Compound 2] were, in that order, 200 nM and 97%. In the case of `Cc1cc(C[C@H]2CCCN(Cc3ccc4nc(C)sc4c3)C2)cc(C)n1` [Compound 53], the IC50 is 3980 nM. The Emax (maximal effect) is 77%. `Cc1nc2nc(C(C)N3CC[C@H](Cc4cc(F)cc(F)n4)C3)ccc2o1` (some centres unmarked) [Compound 79]: the IC50 is 158 nM. In addition, the Emax (maximal effect) stood at 99%.

`Cc1cc(C[C@H]2CCCN(Cc3ccc4oc(C)nc4n3)C2)cc(C)n1` [Compound 36]: the IC50 is 63.1 nM. For the same compound, the maximal effect (Emax) (maximal effect) was determined as 101%. The like results for `Cc1cc(C[C@H]2CCCN(C(C)c3ccc4occc4n3)C2)cc(C)n1` (mixture of isomers) [Compound 38] were, in that order, 126 nM and 100%.

On to `COc1cc(C[C@H]2CCCN([C@@H](C)c3ccc4oc(C)nc4n3)C2)cc(C)n1` (relative stereo) [Compound 23b], for which the IC50 was 200 nM. For the same compound, the maximum response (Emax) (maximal effect) is 101%. `Cc1cc(C[C@@H]2CCN(C(C)c3cnc4[nH]c(C)nc4c3)C2)cc(C)n1` (mixture of isomers) [Compound 7]: the IC50 was 50.1 nM. The Emax (maximal effect) came to 100%.

As for `Cc1cc(C[C@H]2CCCN(Cc3ccc4[nH]c(C)nc4c3)C2)cc(C)n1` [Compound 10], the IC50 was 1000 nM. The Emax (maximal effect) stood at 89%. The like results for `COc1cc(C[C@@H]2CCN(C(C)c3ccc4sc(C)nc4n3)C2)cc(C)n1` (mixture of isomers) [Compound 44] were, in that order, 126 nM and 99%. Regarding `Cc1cc(C[C@H]2CCN([C@@H](C)c3ccc4oc(C)nc4n3)C2)cc(C)n1` [Compound 27a], the IC50 was 200 nM. Further, the Emax (maximal effect) was 99%. The like results for `Cc1cc(C[C@H]2CCN([C@H](C)c3ccc4oc(C)nc4n3)C2)cc(C)n1` [Compound 27b] were, in that order, more than 10000 nM and 47%. In the same order, the values of `Cc1cc(C[C@H]2CCCN([C@@H](C)c3ccc4cn(C)nc4n3)C2)cc(C)n1` (relative stereo) [Compound 12a] are 1580 nM and 88%.

Consider `COc1cc([C@H]2CCCN([C@H](C)c3cnc4[nH]c(C)nc4c3)C2)cc(C(F)(F)F)n1` [Compound 4a], for which the Emax (maximal effect) was 50%.

For the compound `Cc1cc(OC[C@@H]2CCCN(C(C)c3cc4nc(C)oc4cc3F)C2)cc(C)n1` (mixture of isomers) [Compound 35], the IC50 is 100 nM. Also, the Emax (maximal effect) came out at 101%. With `Cc1cc(C[C@@H]2CCN(C(C)c3cc4nc(C)oc4cc3F)C2)cc(C)n1` (mixture of isomers) [Compound 33ab], the IC50 was 20 nM. The Emax (maximal effect) came out at 99%.

The values above are taken from patent publication US20210115040A1, “OGA INHIBITOR COMPOUNDS” (Janssen Pharmaceutica NV, priority 2018, published 2021).
